Experimental data reported in paper PMC6425991, “Peptide Super-Agonist Enhances T-Cell Responses to Melanoma” (Frontiers in Immunology, 2019).
Values joined by “and” are separate entries in the source; they are usually repeats but may differ in a detail not shown here. Equal values may be shown once.

Legend:
[1] = target: T1, HLA A2 (Homo sapiens, UniProt P04439, D140Y/D185E/D98H/E176V/E277Q/G131W/G231S/I119V/I121R/I166T/I218V/L300P/L318F/N151K/N90K/P208A/P217A/Q86G/Q94H/R138H/R169H/T345S); format: binding
T1 construct: T2 cells (TAP deficient HLA A2^+) were incubated overnight in serum-free media; endogenous in cells; host or cells: T2 cells

[2] = system: MM909.24 TIL; assay: Intracellular cytokine staining (IFNγ) of TIL infusion product; format: cell-based, human; settings: T2 cells as antigen presenting cells, 5 h, peptide 10^−5-10^−12 M
Description: Cells were then washed and stained with violet Live/Dead fixable dead cell stain, VIVID (Life Technologies, Paisley, UK) and for surface markers with anti-CD3 peridinin chlorophyll protein (PerCP) (clone BW264/56, Miltenyi Biotech, Bergisch Gladbach, Germany) and anti-CD8 allophycocyanin (APC)-Vio770 (clone BW135/80, Miltenyi Biotech) antibodies. Cells were prepared for ICS by incubating with Cytofix/Cytoperm™ (BD Biosciences), according to manufacturer's instructions, before staining for 20 min on ice with anti-IFNγ APC antibody (clone 45-15, Miltenyi Biotech). Cells were resuspended in FACS buffer (PBS supplemented with 2% FBS) before acquisition on BD FACS Canto II (BD Biosciences). Data was analysed using FlowJo Software (TreeStar, Ashland, OR, USA).

[3] = system: CD8 T-cells of healthy donors; settings: cited from earlier work
Source text: Analysis of T-cells that responded to autologous tumour within the TIL infusion product used to cure an HLA A2^+ stage IV melanoma patient (code MM909.24), and also in the blood 6 months post cure, identified several persistent TCR clonotypes ([16], [17]). […] […]. Alteration of TCR contact residues has the advantage that the resultant APL are highly likely to be viewed as “nonself” and may therefore have increased potential for breaking immune tolerance. […]. PS-CPL have been explored as a way of selecting such “mimitopes” ([19], [33], [50]). This approach ...

[4] = system: CD8 T-cell clone ST8.24; assay: Peptide activation assay, MIP-1β ELISA; format: cell-based, human; settings: overnight, T2 cells, peptide titration
Description: T-cell clones were cultured in R5 for 24 h prior to assay to reduce spontaneous activation. Assays were performed overnight in R5 in 96 U well plates with 3 × 10^5 T-cells and 6 × 10^5 T2 cells with and without desired peptides. The following day, supernatants were harvested, diluted with 70 μL R0 (R10 but without serum) and a half-area-well MIP-1β Enzyme-linked Immunosorbent Assay (ELISA) was carried out as per the manufacturer's instructions (R&D Systems, Minneapolis, MN). A decamer combinatorial peptide library (Pepscan Presto BV, Lelystad, The Netherlands) was stored and used as previously described ([19]). Individual peptides were synthesised to ≥95% purity (GL Biochem, Shanghai, China, or Peptide Protein Research Ltd, Hampshire, UK) stored at −80°C. […] Polyclonal T-cell populations were cultured overnight in R5 in order to reduce spontaneous activation. The following day an IFNγ Enzyme-Linked ImmunoSpot (ELISpot) assay was performed, using Multiscreen plates® (Millipore, Massachusetts, MA) as per the manufacturers' instructions (Mabtech, Nacka Strand, Sweden). 5 × 10^4 T-cells were screened against 10 candidate super-agonist peptides (described previously) at a concentration range of 10^−4 to 10^−8 mM. ELISpot data was collected using an ImmunoSpot® plate reader (CTL, Shaker Heights, Ohio, OH).

DRASFIKNL
MFI of HLA A2 expression [1]: 197 and 191 and 182 and 211 and 183 and 188

FATGIGIITV [super-agonist peptide of clone MEL5 from the authors' previous work]
IFNγ production by TIL infusion product [2]: failed to induce IFNγ production | healthy donors in which the peptide induced greater CD8 T-cell responses [3]: 6 of 10 | activation of clone ST8.24 (MIP-1β ELISA) [4]: failed to activate

HPVGEADYFEY
MFI of HLA A2 expression [1]: 183 and 202 and 199 and 159 and 231
